Measurements as given in article doi:10.1101/662718v1 (biorxiv, 2019).

Key:
[1] = target: T1, ecATCase (Escherichia coli, UniProt P0A786); assay: ITC; type: binding; conditions: 50 mM Tris-acetate pH 8.3, no Asp
T1 sequence (P0A786 2-311): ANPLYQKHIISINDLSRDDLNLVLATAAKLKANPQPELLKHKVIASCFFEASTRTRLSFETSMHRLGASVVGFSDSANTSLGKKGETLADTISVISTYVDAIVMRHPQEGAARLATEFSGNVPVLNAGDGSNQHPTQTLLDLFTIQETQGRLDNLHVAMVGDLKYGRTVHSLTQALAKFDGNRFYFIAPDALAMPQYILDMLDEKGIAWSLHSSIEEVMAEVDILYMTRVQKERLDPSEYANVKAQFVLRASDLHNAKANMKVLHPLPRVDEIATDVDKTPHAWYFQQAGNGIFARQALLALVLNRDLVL

[2] = target: T1, ecATCase; assay: colorimetric ATCase activity assay, dose-response fit; type: biochemical
[3] = target: T2, huATCase (Homo sapiens, UniProt P27708); assay: as above; type: biochemical
T2 sequence (P27708 1915-2225 limits assumed): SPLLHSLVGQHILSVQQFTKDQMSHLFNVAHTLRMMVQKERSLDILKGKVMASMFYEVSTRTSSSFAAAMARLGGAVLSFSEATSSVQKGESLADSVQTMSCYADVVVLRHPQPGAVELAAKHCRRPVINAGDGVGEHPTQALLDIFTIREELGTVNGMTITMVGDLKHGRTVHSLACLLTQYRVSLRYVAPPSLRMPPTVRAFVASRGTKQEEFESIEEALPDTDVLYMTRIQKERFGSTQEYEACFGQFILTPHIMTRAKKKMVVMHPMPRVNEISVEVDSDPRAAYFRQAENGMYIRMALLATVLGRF

Question: For NC(=O)OP(=O)(O)O [CP], which KD [1] is on record?
Answer: all ATCase variants were able to bind CP

Question: With O=c1[nH]c2ccc(Nc3nc4nonc4nc3N/N=C/c3ccccc3OCc3ccc(Cl)cc3Cl)cc2[nH]1 [YD19] as the molecule, how does the IC50 [2] read?
Answer: 1.8 ± 0.4 µM

Question: What about the IC50 [3] of the same molecule?
Answer: 4.1 ± 1.9 µM

Question: CC(C(=O)Oc1ccc(C2C3=C(Nc4[nH]c(=O)n(C)c(=O)c42)c2ccccc2C3=O)cc1)N1C(=O)c2ccccc2C1=O (centres unmarked) [YD21] was tested. Which IC50 [2] did it give?
Answer: 5 ± 1.4 µM

Question: What about the IC50 [3] of the same molecule?
Answer: 15.4 ± 1.6 µM
